Here are results for one substance from patent US12629415B2, “Vaccine adjuvants” (THE PROVOST, FELLOWS, FOUNDATION SCHOLARS, AND THE OTHER …, priority 2018, dated 2026).

“Also recorded” adds a separate entry of the source.

Test [1] deals with Human PBMCs. Description: IL-1β ELISA on stimulated human PBMCs. It counts as cell-based. To be noted: with or without LPS 100 pg/ml priming; 24 hours. The method, then: (§1) Supernatants were collected after 24 hours and IL-1β was detected by ELISA. Human PBMCs were stimulated for 24 hours with polydA:dT (5 μg/ml, 2 μg/ml or 1 μg/ml) or alum (50 μg/ml) alone or with LPS (100 pg/ml) (C & D). Supernatants were collected and IL-1β was detected by ELISA. Bovine PBMCs were cultured with polydA:dT (1 μg/ml) with or without LPS (100 pg/ml) for 16 hours (E). Cell lysates were harvested and pro-IL-1β was detected by western blot. PBMCs were stimulated with media or polydA:dT (1 μg/ml) for 6 hours. Cells were lysed and RNA was harvested and used for analysis by RT-PCR (F). Results are mean+/− SEM for 6 calves tested individually in triplicate. For human analysis, results are mean+/− SEM for 6 humans tested individually in triplicate The PPIA gene was used for normalization of gene expression.

For test [2], the system named is bovine PBMCs. Description: Real-time PCR of gene expression in bovine PBMCs. It counts as cell-based, cattle. To be noted: for IFN-α gene expression / IFN-β gene expression: vs unstimulated cells; for ISG-15 expression: after 12 hours (text), 6 hours (FIG. 23 legend). How it is done:
RNA extraction was conducted using Trizol and an RNeasy Plus Mini Kit (Qiagen Ltd). Tissue culture plates of stimulated cells were spun and supernatants were extracted while the remaining adherent cells were lysed using Trizol. Chloroform (200 μl per 1 ml of Trizol) was then added to the cell lysates and mixed vigorously before being centrifuged at 12000 g for 15 minutes at 4° C. The resulting aqueous layer of RNA was transferred to another tube containing 1 volume of ethanol. The mixture was then added to an RNeasy column and processed according to the manufacturer's instructions (Qiagen Ltd). After rigorous purification, the RNA was isolated and quantified using NanoDrop ND-1000 UV-Vis Spectrophotometer (NanoDrop Technologies Inc.). Finally the samples were stored at −80° C.
RNA was converted to cDNA using a High-Capacity cDNA Reverse transcription Kit (Applied Biosystems). Components needed for reverse transcriptase included RNA, RT 5× buffer, RNase Out, random hexamers, dNTP's and reverse transcriptase. The process was conducted under the following conditions: 25° C. for 10 minutes, 42° C. for 60 minutes, 95° C. for 3 minutes and hold at 4° C. The resulting cDNA was stored at −20° C.
Using, SYBR Green intercalating dye (Applied Biosystems Ltd), qRT-PCR was performed using Applied Biosystems 7500 Fast Real-Time PCR System. Each well on the qRT-PCR plate was comprised of SYBR Green dye, nuclease free H2O, cDNA, forward and reverse primers. Two negative controls were included to ensure no contamination was present. The cycle parameters of the process were: 95° C. for 20 seconds, 40 cycles at 95° C. for 3 seconds, 60° C. for 30 seconds followed by the dissociation steps which were: 95° C. for 15 seconds, 60° C. for 60 seconds, 95° C. for 15 seconds and 60° C. for 15 seconds. The Ct (threshold cycle) values from both the target and reference gene were used to measure the concentration of the target gene in the PCR reaction.
(In general: In qPCR the cycle at which signal appears reflects the starting amount.)

Test [3] concerns bovine PBMCs. Description: Western blot of pro-IL-1β in bovine PBMC lysates. It counts as cell-based, cattle. How it is done:
as §1, with “Bovine PBMCs were cultured with polydA:dT (1 μg/ml) with or without LPS (100 pg/ml) for 16 hours (E).” left out
For orientation: Immunoblotting shows a protein as a band on a membrane.

Where [4] appears, read: polydA:dT 1 μg/ml, 6 hours, listed as PolydA:dT.
The mark [5] stands for this setting: polydA:dT 1 μg/ml, 6 hours, listed as poly(dA:dT).
The mark [6] stands for this setting: polydA:dT 1 μg/ml, 6 hours, listed as polydA:dT.

As for “poly(deoxyadenylic-thymidylic) acid [Poly(dA:dT)]”, in test [1], the “IL-1β secretion by human PBMCs” value is “only cells primed with LPS 3 h prior to transfection with polydA:dT secreted processed IL-1β; also recorded: human PBMCS did not secrete processed IL-1β”. Moreover, the IFI-16 expression result in test [2] (polydA:dT 1 μg/ml transfected, 12 hours) was “enhanced in response to polydA:dT; also recorded: regulates IFI-16 expression; also recorded: IFI-16 expression is enhanced by polydA:dT”. Also, in test [2] (polydA:dT 1 μg/ml, 6 hours), the IL-18 expression result was “enhanced by polydA:dT; also recorded: increased in response to polydA:dT after 6 hours; also recorded: can drive enhanced IL-18 expression; also recorded: increased the expression of IL-18; also recorded: robust driver of IL-1β secretion and IL-18 expression in cattle”. Also, the IFN-α gene expression entry is “increases type I IFN expression by bovine PBMCs; also recorded: enhanced IFN-α, IFN-β and ISG-15 expression by bovine PBMCs” in test [2] (setting [4]); “enhanced type 1 interferon secretion” in test [2] (setting [5]); “enhanced after 6 hours in comparison to unstimulated cells; also recorded: increases IFN-α and IFN-β expression in bovine PBMCs” in test [2] (setting [6]). For the same substance, the IFN-β gene expression result in test [2] (setting [4]) is “increases type I IFN expression by bovine PBMCs; also recorded: enhanced IFN-α, IFN-β and ISG-15 expression by bovine PBMCs”; in test [2] (setting [5]), “enhanced type 1 interferon secretion”; in test [2] (setting [6]), “enhanced after 6 hours in comparison to unstimulated cells; also recorded: increases IFN-α and IFN-β expression in bovine PBMCs”. Moreover, the ISG-15 expression entry was “enhanced IFN-α, IFN-β and ISG-15 expression by bovine PBMCs” in test [2] (polydA:dT 1 μg/ml, listed as PolydA:dT); “increased in response polydA:dT after 12 hours; also recorded: ISG-15 expression is increased in bovine PBMCs” in test [2] (polydA:dT 1 μg/ml, listed as polydA:dT). Also, the pro-IL-1β expression entry in test [3] (6 hours, data not shown) is listed as “enhances pro-IL-1β expression after 6 hours”. The “pro-IL-1β (western blot)” value in test [3] (16 hours, with or without LPS 100 pg/ml) is on record as “pro-IL-1β was evidently expressed in cells stimulated with polydA:dT in the absence of LPS”.
